How the values were obtained:
Format in all cases: in vivo
[1] = system: Tenebrio molitor pupae; assay: topical application to Tenebrio molitor pupae, maturation inhibition
Source text: (§1) The compounds were applied in acetone solution at concentrations of 10 percent, 1 percent and 0.5 percent. One microliter of the acetone solution was applied to each test specimen. Ten test specimens were employed for each insect at each concentration and compared to ten acetone controls and ten zero controls. Approximately eight to ten days were required before results could be ascertained.
(§2) The insect species used in the test were Tenebrio molitor pupae; milkweed bug, fourth nymphal stage; wax moth, fifth larval stage; and Mexican bean beetle, fourth larval stage. At the completion of the test, each specimen was examined for the degree of juvenile and adult characteristics. The milkweed bug, wax moth, and Mexican bean beetle were assigned a numerical rating of 0 to 3 with 0 indicating no effect and 3 indicating the maximum effect or least adult development. Because of differences in morphology the Tenebrio rating scale was 0 to 4. In all cases a rating of 2 or higher means that the insect is incapable of reproduction. The number of specimens in each rating classification are given. In any test were the total of specimens reported is less than 10, those unreported died in some metamorphic stage. Such deaths indicate control, since the dead insects are not capable of reproducing.

[2] = system: milkweed bug; assay: topical application to milkweed bug, fourth nymphal stage, maturation inhibition
Source text: as §1, §2

[3] = system: wax moth; assay: topical application to wax moth, fifth larval stage, maturation inhibition
Source text: as §1, §2

[4] = system: Mexican bean beetle; assay: topical application to Mexican bean beetle, fourth larval stage, maturation inhibition
Source text: as §1, §2

[5] = 10% in acetone, 1 microliter topical, rating scale 0 (no effect) to 4 (maximum)
[6] = 10% in acetone, 1 microliter topical, rating scale 0 (no effect) to 3 (maximum)

Structure (SMILES)	number of specimens in rating 0 ([1]; 0.5%, rating scale 0-4)	number of specimens in rating 1 ([1]; 0.5%, rating scale 0-4)	number of specimens in rating 2 ([1]; 0.5%, rating scale 0-4)	number of specimens in rating 4 ([1]; 0.5%, rating scale 0-4)	number of specimens in rating 4 ([1]; 1%, rating scale 0-4)	number of specimens in rating 4 ([1]; 10%, rating scale 0-4)	number of specimens in rating 0 ([2]; 0.5%, rating scale 0-3)	number of specimens in rating 1 ([2]; 0.5%, rating scale 0-3)	number of specimens in rating 3 ([2]; 0.5%, rating scale 0-3)	number of specimens in rating 0 ([2]; 1%, rating scale 0-3)	number of specimens in rating 3 ([2]; 1%, rating scale 0-3)	number of specimens in rating 3 ([2]; 10%, rating scale 0-3)	number of specimens in rating 0 ([3]; 0.5%, rating scale 0-3)	number of specimens in rating 0 ([3]; 1%, rating scale 0-3)	number of specimens in rating 0 [3, 6]	number of specimens in rating 3 ([4]; 0.5%, rating scale 0-3)	number of specimens in rating 3 ([4]; 1%, rating scale 0-3)	number of specimens in rating 3 ([4]; 10%, rating scale 0-3)	number of specimens in rating 1 ([1]; 1%, rating scale 0-4)	number of specimens in rating 0 ([1]; 1%, rating scale 0-4)	also measured
CC(=CCCc1ccc2c(c1)OCO2)CCCC(C)C [2,6-DIMETHYL-9-(3,4-METHYLENEDIOXYPHENYL)-6-NONENE]	3 specimens	1 specimens	2 specimens	2 specimens	6 specimens	9 specimens	5 specimens	1 specimens	3 specimens	1 specimens	8 specimens	7 specimens	9 specimens	9 specimens	10 specimens	2 specimens	10 specimens	10 specimens			number of specimens in rating 3 ([1]; 0.5%, rating scale 0-4): 2 specimens; number of specimens in rating 2 ([1]; 1%, rating scale 0-4): 4 specimens; number of specimens in rating 0 [1, 5]: 1 specimens; number of specimens in rating 1 ([3]; 0.5%, rating scale 0-3): 1 specimens; number of specimens in rating 1 ([3]; 1%, rating scale 0-3): 1 specimens; number of specimens in rating 1 ([4]; 0.5%, rating scale 0-3): 1 specimens; number of specimens in rating 2 ([4]; 0.5%, rating scale 0-3): 7 specimens
COc1ccc(CCC=C(C)CCC=C(C)C)cc1 [2,6-DIMETHYL-9-(4-METHOXYPHENYL)-2,6-NONADIENE]	1 specimens	6 specimens	3 specimens		2 specimens		10 specimens			5 specimens			10 specimens	9 specimens	10 specimens				1 specimens		number of specimens in rating 2 ([1]; 1%, rating scale 0-4): 2 specimens; number of specimens in rating 3 ([1]; 1%, rating scale 0-4): 5 specimens; number of specimens in rating 1 ([2]; 1%, rating scale 0-3): 5 specimens; number of specimens in rating 0 ([4]; 0.5%, rating scale 0-3): 10 specimens; number of specimens in rating 0 ([4]; 1%, rating scale 0-3): 10 specimens; number of specimens in rating 0 [4, 6]: 6 specimens; number of specimens in rating 1 ([4]; 10%, rating scale 0-3): 1 specimens; number of specimens in rating 2 ([4]; 10%, rating scale 0-3): 3 specimens
CC(C)=CCC/C(C)=C/CCc1ccccc1 [2,6-DIMETHYL-9-PHENYL-2,6-NONADIENE]	7 specimens	3 specimens				5 specimens	8 specimens	1 specimens		2 specimens		9 specimens	10 specimens	10 specimens	10 specimens	10 specimens	10 specimens	10 specimens	4 specimens	6 specimens	number of specimens in rating 2 ([1]; 10%, rating scale 0-4): 1 specimens; number of specimens in rating 3 ([1]; 10%, rating scale 0-4): 4 specimens; number of specimens in rating 2 ([2]; 0.5%, rating scale 0-3): 1 specimens; number of specimens in rating 1 ([2]; 1%, rating scale 0-3): 1 specimens
CCC1(C)OC1CCC(C)=CCCc1ccc2c(c1)OCO2 (stereo not shown) [3,4-EPOXY-3,7-DIMETHYL-10-(3,4-METHYLENEDIOXYPHENYL)-7-DECENE]				10 specimens	10 specimens	10 specimens	2 specimens	5 specimens		2 specimens	8 specimens					10 specimens	10 specimens				number of specimens in rating 2 ([2]; 0.5%, rating scale 0-3): 2 specimens; number of specimens in rating 2 ([3]; 0.5%, rating scale 0-3): 1 specimens; number of specimens in rating 3 ([3]; 0.5%, rating scale 0-3): 9 specimens; number of specimens in rating 3 ([3]; 1%, rating scale 0-3): 10 specimens
CCC(C)=CCCC(C)=CCCc1ccc2c(c1)OCO2 [3,7-DIMETHYL-10-(3,4-METHYLENEDIOXYPHENYL)-3,7-DECADIENE]				10 specimens	10 specimens	10 specimens		1 specimens	8 specimens		9 specimens	5 specimens									
CCC(C)=CCCC(=CCCc1ccc2c(c1)OCO2)CC [3-METHYL-7-ETHYL-10-(3,4-METHYLENEDIOXYPHENYL)-3,7-DECADIENE]				8 specimens	9 specimens	10 specimens	9 specimens	1 specimens		7 specimens	1 specimens	10 specimens	9 specimens	10 specimens	10 specimens	9 specimens	10 specimens	10 specimens			number of specimens in rating 3 ([1]; 0.5%, rating scale 0-4): 2 specimens; number of specimens in rating 3 ([1]; 1%, rating scale 0-4): 1 specimens; number of specimens in rating 2 ([2]; 1%, rating scale 0-3): 2 specimens; number of specimens in rating 2 ([4]; 0.5%, rating scale 0-3): 1 specimens
CCCCCCCCCc1ccc2c(c1)OCO2 [5-(n-NONYL)-1,3-BENZODIOXOLE]	6 specimens	1 specimens	3 specimens		1 specimens	7 specimens	8 specimens	1 specimens		3 specimens	4 specimens	5 specimens						8 specimens		2 specimens	number of specimens in rating 2 ([1]; 1%, rating scale 0-4): 5 specimens; number of specimens in rating 3 ([1]; 1%, rating scale 0-4): 1 specimens; number of specimens in rating 3 ([1]; 10%, rating scale 0-4): 3 specimens; number of specimens in rating 1 ([2]; 1%, rating scale 0-3): 1 specimens; number of specimens in rating 2 ([2]; 1%, rating scale 0-3): 1 specimens; number of specimens in rating 0 [2, 6]: 4 specimens; number of specimens in rating 2 ([2]; 10%, rating scale 0-3): 1 specimens; number of specimens in rating 0 ([4]; 0.5%, rating scale 0-3): 9 specimens; number of specimens in rating 0 ([4]; 1%, rating scale 0-3): 10 specimens
CC(C)CCCC(C)CCCc1ccc2c(c1)OCO2 (stereo not shown) [9-(3,4-methylenedioxyphenyl)-2,6-dimethylnonane]				7 specimens	10 specimens	10 specimens			8 specimens		10 specimens	8 specimens									number of specimens in rating 3 ([1]; 0.5%, rating scale 0-4): 3 specimens
CC(C)=CCC/C(C)=C/CCc1cccs1 [trans-9-(2-THIENYL)-2,6-DIMETHYL-2,6-NONADIENE]	8 specimens	2 specimens				9 specimens	10 specimens			10 specimens		4 specimens						10 specimens		10 specimens	number of specimens in rating 1 ([1]; 10%, rating scale 0-4): 1 specimens; number of specimens in rating 0 [2, 6]: 3 specimens; number of specimens in rating 0 ([4]; 0.5%, rating scale 0-3): 9 specimens; number of specimens in rating 1 ([4]; 0.5%, rating scale 0-3): 1 specimens; number of specimens in rating 0 ([4]; 1%, rating scale 0-3): 5 specimens; number of specimens in rating 1 ([4]; 1%, rating scale 0-3): 5 specimens
CC(C)=CCC/C(C)=C/CCc1cccc(Br)c1 [trans-9-(3-BROMOPHENYL)-2,6-DIMETHYL-2,6-NONADIENE]	8 specimens	1 specimens	1 specimens						10 specimens		10 specimens	10 specimens				1 specimens	2 specimens	1 specimens	2 specimens	8 specimens	number of specimens in rating 0 [1, 5]: 8 specimens; number of specimens in rating 1 ([1]; 10%, rating scale 0-4): 2 specimens; number of specimens in rating 0 ([4]; 0.5%, rating scale 0-3): 8 specimens; number of specimens in rating 1 ([4]; 0.5%, rating scale 0-3): 1 specimens; number of specimens in rating 0 ([4]; 1%, rating scale 0-3): 7 specimens; number of specimens in rating 1 ([4]; 1%, rating scale 0-3): 1 specimens; number of specimens in rating 0 [4, 6]: 9 specimens
CC(C)=CCC/C(C)=C/CCc1ccc(Br)cc1 [trans-9-(4-BROMOPHENYL)-2,6-DIMETHYL-2,6-NONADIENE]	8 specimens	1 specimens		1 specimens		10 specimens			10 specimens		10 specimens	9 specimens				10 specimens	10 specimens	10 specimens	1 specimens	9 specimens	
